Data from ChEMBL document CHEMBL5143590, “Dihydropyrimidinone imidazoles as unique structural antibacterial agents for drug-resistant gram-negative pathogens” (Eur J Med Chem, 2022).
Values after ≈ are worked out from the molar mass of the structure shown. Active and inactive are the calls of the source. No cut-off for these calls is given here.

Experiments:
Pseudomonas aeruginosa [1] = assay: Antibacterial activity against Pseudomonas aeruginosa assessed as inhibition of bacterial growth by two fold serial dilution method; type: functional
Calf thymus DNA [2] = assay: Binding affinity to calf thymus DNA assessed as reduction in fluorescence intensity of DNA-acridine orange complex by acridine orange dye based fluorescence analysis; type: nucleic-acid assay; conditions: Bos taurus
Klebsiella pneumoniae [3] = assay: Anti- biofilm activity against Klebsiella pneumoniae assessed as inhibition of biofilm formation at 4 times MIC relative to control; type: functional; design: scale not given: the % may be the effect or the level left
Pseudomonas aeruginosa [4] = assay: Antibacterial activity against Pseudomonas aeruginosa 27853 assessed as inhibition of bacterial growth by two fold serial dilution method; type: functional
Klebsiella pneumoniae [5] = assay: Induction of ROS generation in Klebsiella pneumoniae assessed as ROS accumulation at 1 to 8 times MIC by DCFH-DA dye based fluorescence assay; type: functional, organism-based; conditions: DDE = dose-dependent effect
Staphylococcus aureus [6] = assay: Antibacterial activity against Staphylococcus aureus assessed as inhibition of bacterial growth by two fold serial dilution method; type: functional
Klebsiella pneumoniae [7] = assay: Anti- biofilm activity against Klebsiella pneumoniae assessed as biofilm viability at 2 times MIC relative to control; type: functional
Klebsiella pneumoniae [8] = assay: Bactericidal activity against Klebsiella pneumoniae assessed as reduction in bacterial growth at MIC and measured within 2 hrs by time-kill kinetic assay; type: functional
Acinetobacter baumannii [9] = assay: Anti- biofilm activity against Acinetobacter baumannii assessed as biofilm viability at 6 times MIC relative to control; type: functional
Acinetobacter baumannii [10] = assay: Bactericidal activity against Acinetobacter baumannii assessed as reduction in bacterial growth at 4 times MIC and measured within 2 hrs by time-kill kinetic assay relative to control; type: functional; design: scale not given: the % may be the effect or the level left
Staphylococcus aureus [11] = assay: Antibacterial activity against Staphylococcus aureus 25923 assessed as inhibition of bacterial growth by two fold serial dilution method; type: functional
Klebsiella pneumoniae [12] = assay: Induction of morphological changes in Klebsiella pneumoniae assessed as appearance of broken cell membrane at 2 times MIC for 4 hrs by SEM analysis; type: functional, organism-based
Klebsiella pneumoniae [13] = assay: Antibacterial activity against Klebsiella pneumoniae assessed as inhibition of bacterial growth by two fold serial dilution method; type: functional
Enterococcus faecalis = assay: Antibacterial activity against Enterococcus faecalis assessed as inhibition of bacterial growth by two fold serial dilution method; type: functional
Acinetobacter baumannii [14] = assay: Anti- biofilm activity against Acinetobacter baumannii assessed as biofilm viability at 4 times MIC relative to control; type: functional
Klebsiella pneumoniae [15] = assay: Bactericidal activity against Klebsiella pneumoniae assessed as reduction in bacterial growth at 4 times MIC and measured within 2 hrs by time-kill kinetic assay relative to control; type: functional; design: scale not given: the % may be the effect or the level left
Acinetobacter baumannii [16] = assay: Anti- biofilm activity against Acinetobacter baumannii assessed as inhibition of biofilm formation at 2 times MIC relative to control; type: functional; design: scale not given: the % may be the effect or the level left
Klebsiella pneumoniae [17] = assay: Induction of morphological changes in Klebsiella pneumoniae assessed as shrunken cell membrane at 2 times MIC for 4 hrs by SEM analysis; type: functional, organism-based
Erythrocyte = assay: Hemolytic activity in human RBC assessed as hemolysis at 512 ug/ml; type: toxicity, cell-based; conditions: dose 512 µg/ml
Klebsiella pneumoniae [18] = assay: Anti- biofilm activity against Klebsiella pneumoniae assessed as inhibition of biofilm formation at 2 times MIC relative to control; type: functional; design: scale not given: the % may be the effect or the level left
Cell membrane [19] = assay: Induction of outer membrane permeabilization in Klebsiella pneumoniae assessed as increase in NPN fluorescence at 4 times MIC by NPN-dye based fluorescence analysis; type: subcellular
Staphylococcus aureus [20] = assay: Antibacterial activity against methicillin-resistant Staphylococcus aureus N315 assessed as inhibition of bacterial growth by two fold serial dilution method; type: functional
Cell membrane [21] = assay: Induction of cytoplasmic membrane depolarization in Acinetobacter baumannii assessed as increase in fluorescence intensity at 0.5 to 4 times MIC and measured up to 100 mins by DiSC35 dye based fluorescence method; type: subcellular; conditions: TDE = time-dependent effect
Acinetobacter baumannii [22] = assay: Anti- biofilm activity against Acinetobacter baumannii assessed as biofilm viability at 2 times MIC relative to control; type: functional
Cell membrane [23] = assay: Induction of cytoplasmic membrane depolarization in Klebsiella pneumoniae assessed as increase in fluorescence intensity at 0.5 to 4 times MIC by DiSC35 dye based fluorescence method; conditions: DDE = dose-dependent effect
Escherichia coli [24] = assay: Antibacterial activity against Escherichia coli 25922 assessed as inhibition of bacterial growth by two fold serial dilution method; type: functional
Cell membrane [25] = assay: Induction of outer membrane permeabilization in Acinetobacter baumannii assessed as increase in fluorescence intensity at 4 times MIC by NPN-dye based fluorescence analysis; type: subcellular
Escherichia coli [26] = assay: Antibacterial activity against Escherichia coli assessed as inhibition of bacterial growth by two fold serial dilution method; type: functional
Klebsiella pneumoniae [27] = assay: Anti- biofilm activity against Klebsiella pneumoniae assessed as inhibition of biofilm formation at 1 time MIC relative to control; type: functional; design: scale not given: the % may be the effect or the level left
Klebsiella pneumoniae [28] = assay: Induction of morphological changes in Klebsiella pneumoniae assessed as membrane rupture at 2 times MIC for 4 hrs by TEM analysis; type: functional, organism-based
Cell membrane [29] = assay: Induction of cytoplasmic membrane depolarization in Acinetobacter baumannii assessed as increase in fluorescence intensity at 0.5 to 4 times MIC by DiSC35 dye based fluorescence method; conditions: DDE = dose-dependent effect
Acinetobacter baumannii [30] = assay: Anti- biofilm activity against Acinetobacter baumannii assessed as inhibition of biofilm formation at 6 times MIC relative to control; type: functional; design: scale not given: the % may be the effect or the level left
[31] = Cytotoxicity against human HepG2 cells assessed as viable cells upto 40 ug/ml relative to control; type: toxicity, cell-based; conditions: up to 40 µg/mL, read-out: Activity
Staphylococcus aureus [32] = assay: Antibacterial activity against Staphylococcus aureus 29213 assessed as inhibition of bacterial growth by two fold serial dilution method; type: functional
Acinetobacter baumannii [33] = assay: Anti- biofilm activity against Acinetobacter baumannii assessed as biofilm viability at 1 time MIC relative to control; type: functional
Klebsiella pneumoniae [34] = assay: Antioxidant activity in Klebsiella pneumoniae assessed as loss of GSH activity at 1 to 8 times MIC; type: functional, organism-based
Acinetobacter baumannii [35] = assay: Antioxidant activity in Acinetobacter baumannii assessed as loss of GSH activity at 1 to 8 times MIC; type: functional, organism-based
Calf thymus DNA [36] = assay: Binding affinity to calf thymus DNA assessed as assessed as compound-DNA complex formation by measuring red shift by UV-visible absorption spectrophotometric method; type: nucleic-acid assay; conditions: Bos taurus
Acinetobacter baumannii [37] = assay: Induction of ROS generation in Acinetobacter baumannii assessed as ROS accumulation at 1 to 8 times MIC by DCFH-DA dye based fluorescence assay; type: functional, organism-based; conditions: DDE = dose-dependent effect
Acinetobacter baumannii [38] = assay: Bactericidal activity against Acinetobacter baumannii assessed as reduction in bacterial growth at MIC and measured within 2 hrs by time-kill kinetic assay; type: functional
Klebsiella pneumoniae [39] = assay: Induction of morphological changes in Klebsiella pneumoniae assessed as cell lysis at 2 times MIC for 4 hrs by TEM analysis; type: functional, organism-based
Cell membrane [40] = assay: Induction of inner membrane damage in Klebsiella pneumoniae assessed as disruption of membrane integrity at 0.25 to 2 ug/ml by propidium iodide staining based fluorescence analysis; type: subcellular; conditions: dose 0.25-2 µg/ml
Klebsiella pneumoniae [41] = assay: Anti- biofilm activity against Klebsiella pneumoniae assessed as biofilm viability at 4 times MIC relative to control; type: functional
Klebsiella pneumoniae [42] = assay: Anti- biofilm activity against Klebsiella pneumoniae assessed as biofilm viability at 1 time MIC relative to control; type: functional
Acinetobacter baumannii [43] = assay: Antibacterial activity against Acinetobacter baumannii assessed as inhibition of bacterial growth by two fold serial dilution method; type: functional
Acinetobacter baumannii [44] = assay: Anti- biofilm activity against Acinetobacter baumannii assessed as inhibition of biofilm formation at 4 times MIC relative to control; type: functional; design: scale not given: the % may be the effect or the level left
Cell membrane [45] = assay: Induction of cytoplasmic membrane depolarization in Klebsiella pneumoniae assessed as increase in fluorescence intensity at 0.5 to 4 times MIC and measured up to 100 mins by DiSC35 dye based fluorescence method; type: subcellular; conditions: TDE = time-dependent effect
Klebsiella pneumoniae [46] = assay: Anti- biofilm activity against Klebsiella pneumoniae assessed as inhibition of biofilm formation at 6 times MIC relative to control; type: functional; design: scale not given: the % may be the effect or the level left
Cell membrane [47] = assay: Induction of inner membrane damage in Acinetobacter baumannii assessed as disruption of membrane integrity at 0.25 to 2 ug/ml by propidium iodide staining based fluorescence analysis; type: subcellular; conditions: dose 0.25-2 µg/ml
[48] = Cytotoxicity against human endothelial cells assessed as viable cells upto 40 ug/ml relative to control; type: toxicity, cell-based, Endothelial cell; conditions: up to 40 µg/mL, read-out: Activity
Klebsiella pneumoniae [49] = assay: Anti- biofilm activity against Klebsiella pneumoniae assessed as biofilm viability at 6 times MIC relative to control; type: functional
Klebsiella pneumoniae [50] = assay: Induction of morphological changes in Klebsiella pneumoniae assessed as cytoplasmic sparsity at 2 times MIC for 4 hrs by TEM analysis; type: functional, organism-based
Acinetobacter baumannii [51] = assay: Anti- biofilm activity against Acinetobacter baumannii assessed as inhibition of biofilm formation at 1 time MIC relative to control; type: functional; design: scale not given: the % may be the effect or the level left

**Q.** With CCCCc1nc(Cl)c(C2NC(=O)NC(CN(c3cc(C)no3)S(=O)(=O)c3ccc(N)cc3)=C2C(=O)OCC)[nH]1 (stereo not drawn) as the molecule, how does the MIC (Pseudomonas aeruginosa [1]) read?
**A.** 4 µg/mL (≈ 6.76 µM)

**Q.** What about the Activity (Calf thymus DNA [2]) of the same molecule?
**A.** Active

**Q.** And the Activity (Klebsiella pneumoniae [3])?
**A.** 82%

**Q.** And the MIC (Pseudomonas aeruginosa [4])?
**A.** 4 µg/mL (≈ 6.76 µM)

**Q.** And the Activity (Klebsiella pneumoniae [5])?
**A.** Dde

**Q.** What about the MIC (Staphylococcus aureus [6]) of the same molecule?
**A.** 2 µg/mL (≈ 3.38 µM)

**Q.** What about the Activity (Klebsiella pneumoniae [7]) of the same molecule?
**A.** 76%

**Q.** And the Activity (Klebsiella pneumoniae [8])?
**A.** 2.5 log10CFU/ml

**Q.** And the Activity (Acinetobacter baumannii [9])?
**A.** 41%

**Q.** And the Activity (Acinetobacter baumannii [10])?
**A.** 66.7%

**Q.** And the MIC (Staphylococcus aureus [11])?
**A.** 8 µg/mL (≈ 13.5 µM)

**Q.** And the Activity (Klebsiella pneumoniae [12])?
**A.** Active

**Q.** What about the MIC (Klebsiella pneumoniae [13]) of the same molecule?
**A.** 0.5 µg/mL (≈ 0.844 µM)

**Q.** What about the MIC (Enterococcus faecalis) of the same molecule?
**A.** 16 µg/mL (≈ 27 µM)

**Q.** What about the Activity (Acinetobacter baumannii [14]) of the same molecule?
**A.** 70%

**Q.** And the Activity (Klebsiella pneumoniae [15])?
**A.** 66.7%

**Q.** And the Activity (Acinetobacter baumannii [16])?
**A.** 30%

**Q.** And the Activity (Klebsiella pneumoniae [17])?
**A.** Active

**Q.** And the Activity (Erythrocyte)?
**A.** Non-Toxic

**Q.** What about the Activity (Klebsiella pneumoniae [18]) of the same molecule?
**A.** 66%

**Q.** And the Activity (Cell membrane [19])?
**A.** Active

**Q.** What about the MIC (Staphylococcus aureus [20]) of the same molecule?
**A.** 4 µg/mL (≈ 6.76 µM)

**Q.** And the Activity (Cell membrane [21])?
**A.** Tde

**Q.** What about the Activity (Acinetobacter baumannii [22]) of the same molecule?
**A.** 83%

**Q.** And the Activity (Cell membrane [23])?
**A.** Dde

**Q.** And the MIC (Escherichia coli [24])?
**A.** 1 µg/mL (≈ 1.69 µM)

**Q.** And the Activity (Cell membrane [25])?
**A.** Active

**Q.** And the MIC (Escherichia coli [26])?
**A.** 2 µg/mL (≈ 3.38 µM)

**Q.** And the Activity (Klebsiella pneumoniae [27])?
**A.** 30%

**Q.** What about the Activity (Klebsiella pneumoniae [28]) of the same molecule?
**A.** Active

**Q.** What about the Activity (Cell membrane [29]) of the same molecule?
**A.** Dde

**Q.** And the Activity (Acinetobacter baumannii [30])?
**A.** 84%

**Q.** And the viability [31]?
**A.** > 50%

**Q.** What about the MIC (Staphylococcus aureus [32]) of the same molecule?
**A.** 2 µg/mL (≈ 3.38 µM)

**Q.** What about the Activity (Acinetobacter baumannii [33]) of the same molecule?
**A.** 87%

**Q.** What about the Activity (Klebsiella pneumoniae [34]) of the same molecule?
**A.** Active

**Q.** And the Activity (Acinetobacter baumannii [35])?
**A.** Active

**Q.** What about the Activity (Calf thymus DNA [36]) of the same molecule?
**A.** Active

**Q.** And the Activity (Acinetobacter baumannii [37])?
**A.** Dde

**Q.** And the Activity (Acinetobacter baumannii [38])?
**A.** 2.4 log10CFU/ml

**Q.** And the Activity (Klebsiella pneumoniae [39])?
**A.** Active

**Q.** What about the Activity (Cell membrane [40]) of the same molecule?
**A.** Active

**Q.** And the Activity (Klebsiella pneumoniae [41])?
**A.** 62%

**Q.** And the Activity (Klebsiella pneumoniae [42])?
**A.** 85%

**Q.** And the MIC (Acinetobacter baumannii [43])?
**A.** 0.5 µg/mL (≈ 0.844 µM)

**Q.** And the Activity (Acinetobacter baumannii [44])?
**A.** 58%

**Q.** And the Activity (Cell membrane [45])?
**A.** Tde

**Q.** What about the Activity (Klebsiella pneumoniae [46]) of the same molecule?
**A.** 89%

**Q.** What about the Activity (Cell membrane [47]) of the same molecule?
**A.** Active

**Q.** What about the viability [48] of the same molecule?
**A.** > 50%

**Q.** What about the Activity (Klebsiella pneumoniae [49]) of the same molecule?
**A.** 36%

**Q.** What about the Activity (Klebsiella pneumoniae [50]) of the same molecule?
**A.** Active

**Q.** What about the Activity (Acinetobacter baumannii [51]) of the same molecule?
**A.** 21%
